Residues, ends and D or L forms follow the SMILES beside them.
Tests used:
[1] = tested on: HT22 cells; experiment: ApoTox-Glo Triplex assay (viability, cytotoxicity, caspase 3/7), AβO-exposed cells; format: cell-based, mouse; details: 12 h
Experimental: The ApoTox-Glo^TM Triplex assay (Promega, Madison, WI) was performed to assess the viability, cytotoxicity and caspase^3/7 activation in the human neuroblastoma SH-SY5Y and mouse hippocampal HT22 cells. SH-SY5Y and HT22 cells (2×10^4/ml) were cultured in 96-well plates (Thermo Fisher Scientific) containing DMEM supplemented with 10% FBS and 1% antibiotics and incubated at 37°C in a humidified incubator containing 5% CO2. After reaching 70% confluency, the cells were treated with AβO (1 µM) and different concentrations of Os-pep (0.5, 1, 5 and 10 µM) for 12 h. The control group (cells treated with 0.01% DMSO) was also analyzed. In addition, SH-SY5Y and HT22 cells were transfected with the AdipoR1 siRNA (h) (SC-60123) and AdipoR1 siRNA (m) (SC-60124), respectively, and treated with AβO (1 µM) and Os-pep (10 µM) for 12 h; the control group was transfected with the negative siRNA (Ambion, Thermo Fisher Scientific) and treated with 0.01% DMSO. The assay was performed according to our previously described protocols.

[2] = tested on: Synap and PSD95; experiment: Synap and PSD95 in APPswe/ind-overexpressing SH-SY5Y cells, immunoblot; format: cell-based, human; details: Os-pep 10 μM
Experimental: Human neuroblastoma SH-SY5Y cells were seeded (in 6-well culture plates for immunoblotting and in chamber slides for immunofluorescence) in DMEM (Dulbecco’s modified Eagle medium) containing 10% fetal bovine serum (FBS) and 1% antibiotics (penicillin-streptomycin) and incubated at 37 °C in humidified air containing 5% CO2. Once the cells reached 70–80% confluence, the cells were transfected using the pCAX vector containing the APPswe/ind gene using Lipofectamine 3000 (Life Technologies) according to the provider’s protocols. AdipoR1 siRNA (h) (SC-60123) and AMPK siRNA (h) (SC-45312) (Santa Cruz Biotechnology, Inc.) were used at a concentration of 10 μM per transfection and expressed for 72 h according to the manufacturer’s protocol (Santa Cruz Biotechnology, Inc.). A negative siRNA (Ambion, Thermo Fisher Scientific) was used as a control. Seventy-two hours after the transfections, the cells were exposed to Os-pep (10 μM) for 12 h and then subjected to immunoblotting and immunofluorescence analyses.
Human neuroblastoma SH-SY5Y cells were treated with 1 µM of insulin for 48 h to produce intrinsic insulin-resistant human neuroblastoma (SH-SY5YIR) cells. […]

[3] = tested on: LTP; experiment: Electrophysiology, LTP in hippocampal CA1 slices; format: in vivo, mouse
[4] = tested on: learning and memory functions; experiment: Morris water maze (MWM) test; format: in vivo, mouse
Experimental: To evaluate the learning and memory functions of the mice, we performed the Morris water maze (MWM) and Y-maze tests. After completion of the Os-pep dosage regimen, behavioral studies were performed on AβO-injected, AβO-injected and scramble and functional AdipoR1 shRNA-treated, APP/PS1 and Adipo^−/− mice (n = 13/group) using the MWM and Y-maze tests. […] The mice were randomly selected, and the operators were unaware of the genotype and treatment details for the behavioral study. The MWM and Y-maze tests were performed as previously described.

[5] = Body weight measurements of the mice; format: in vivo, mouse; details: APP/PS1, HFD and Adipo−/− mice vs Veh-treated, 5 μg/g, i.p., alternating days for 45 days, n = 13/group
Experimental: We monitored and weighed the mice three times per week to examine the effect of Os-pep dosage regimen (5 µg/g, i.p., on alternating days for 45 days) on the animals’ body weights. At the completion of the treatment, we calculated the average change in the body weight of the mice. At the completion of the treatments and behavioral experiments, blood samples were collected by cardiac puncture of the right atrium. The serum was collected from whole blood by centrifugation (3000 rpm for 10 min) at room temperature and was stored at -20 °C until it was processed for biochemical analyses by SCL Labs (Seoul Medical Science Institute) to evaluate various metabolic parameters, e.g., glucose (Glu), free fatty acids (FFA), total cholesterol (TC), triglycerides (TG), high density lipoprotein (HDL) and low density lipoprotein (LDL) levels.

[6] = AβO-injected, APP/PS1 and Adipo−/− mice, n = 13/group

## C[C@@H](O)[C@H](NC(=O)[C@@H]1CCCN1C(=O)CNC(=O)[C@H](CS)NC(=O)[C@@H]1CCCN1C(=O)CNC(=O)[C@H](CCC(N)=O)NC(=O)[C@@H](NC(=O)[C@@H](N)CS)[C@@H](C)O)C(=O)O [Os-pep] (H-CTQGPCGPT-OH; N-terminus and C-terminus assumed)
[1]; AdipoR1 siRNA-transfected HT22, AβO 1 μM, Os-pep 10 μM
  AβO-induced toxicity with AdipoR1 siRNA: did not reduce the AβO-induced toxicity
[1]; HT22, AβO 1 μM, Os-pep 10 μM
  AβO neurotoxicity (viability, cytotoxicity, caspase 3/7): significantly reduced AβO (1 μM) neurotoxicity
[1]; HT22, AβO 1 μM, cotreatment 0.5, 1, 5 and 10 μM
  neurotoxic effects of AβO: reduced the neurotoxic effects of AβO
[2]; APPswe/ind-overexpressing SH-SY5Y cells exposed to AdipoR1 siRNA
  Synap and PSD95 expression with AdipoR1 siRNA: did not restore or increase
[2]; APPswe/ind-overexpressing SH-SY5Y cells
  Synap and PSD95 expression: restored and significantly increased
[3]; APP/PS1 and Adipo−/− mice, 5 μg/g, i.p., alternating days for 45 days, n = 5–6/group
  LTP: improved LTP
[3]; AβO mice with shRNA-mediated silencing of AdipoR1 gene
  potentiating effect on LTP with AdipoR1 silencing: significantly attenuated
[3]; scramble shRNA-treated AβO mice, 5 μg/g, i.p., alternating days for 45 days
  suppression of LTP, scramble shRNA: almost completely rescued to a level comparable to that of normal controls
[4]; AβO-injected mice exposed to shRNA silencing of AdipoR1 gene, vs scramble shRNA
  spatial learning/memory functions with AdipoR1 silencing (MWM and Y-maze): did not improve spatial learning/memory functions
[4]; AβO-injected, APP/PS1 and Adipo−/− mice, 5 μg/g, i.p., alternating days for 45 days, n = 13/group
  latency to reach the submerged platform, training session: decrease in the latency
[4]; [6]
  number of platform crossings, probe test: significantly increased number of platform crossings
  time spent in the target quadrant, probe test: more time was spent in the target quadrant
[5]
  fold-increase in body weight: smaller fold-increase in the body weight
